Reference: US20220160652A1, “USE OF VITAMIN K IN COMBINATION WITH ANTICOAGULANTS” (KAYDENCE PHARMA AS, priority 2019, published 2022)

Columns and labels:
[1] = test system: Sprague-Dawley rats; assay: Thrombin Time (TT) in treated Sprague-Dawley rats; assay type: in vivo, rat; details: added to dabigatran and to rivaroxaban
Method: To perform the study, 45 wild-type male Sprague-Dawley and 45 transgenic male Ren-2 rats [TGR(mREN-2)27] at the age of 10-11 weeks at the beginning of the treatment period were purchased from animal facility IKEM-CEM Institute of Clinical and Experimental Medicine (Prague, Czech Republic). All animals in the experiment were housed in individually ventilated cages (2-3 rats per cage) and kept in the animal rooms of JCET at a relative humidity of 55±10%, a temperature of 22±2 ° C., and a light cycle of 7 AM to 7 PM. The rats had free access to food and water. After delivery, animals were randomly divided into 10 experimental groups (5 or 10 rats per group), as indicated below in Table 1.
Four days before the start of the treatment, the first part of animals' body weight and food intake was measured in selected representative three cages (rats n=9) to calculate the appropriate amount of tested compounds required for addition to the diet to obtain the dosing indicated in Table 1. It was estimated that food intake was approximately 30 g of chow per rat per day. […] The body mass of the rats was measured at the beginning and at the end of treatment.
Prothrombin Time (PT), activated Partial Thromboplastin Time (aPTT), Thrombin Time (TT) and fibrinogen levels (Clauss method) were determined according to the manufacturer's instructions using Coag-Chrom 3003 apparatus (Bio-ksel, Grudziadz, Poland). […]

[2] = test system: VSMCs; assay: Oxidative stress in VSMCs (DCFDA fluorescence); assay type: cell-based; details: 10 μM, fluorescence measured for 6 hours
Method: It is known that the level of reactive oxygen species in cells can be measured by measuring the conversion of 2′,7′—dichlorofluorescein diacetate (DCFDA) to the fluorescent dye 2′,7′-dichlorofluorescein (DCF). The fluorescence generated by cells subjected to DCFDA is directly proportional to the amount of oxidized DCFDA to DCF.
To perform the study, VSMCs (10,000 cells/well) were plated in a 96-well plate and left to adhere overnight. Next, cells were incubated for 1 hour with 20 μM DCFDA. The medium was then changed to medium supplemented with 10 μM vitamin K2 (MK-7). To visualize intracellular oxidative stress, fluorescence was measured for 6 hours and fluorescence intensity was normalized for cell count.

CC(C)=CCC/C(C)=C/CC/C(C)=C/CC/C(C)=C/CC/C(C)=C/CC/C(C)=C/CC/C(C)=C/CC1=C(C)C(=O)c2ccccc2C1=O [vitamin K2 (MK-7)]
increase of thrombin time on addition of vitamin K2 (MK-7) [1]: 5-7% | oxidative stress in VSMCs (DCF fluorescence) [2]: clearly reduced the oxidative stress
